Laboratory results from patent US20250011351A1, “[…] O-ACETYLPSILOCIN, SALTS AND SOLID STATE FORMS THEREOF” (Terran Biosciences Inc., priority 2021, published 2025).

Test: Humidity exposure (RH jars, hygroscopicity test; handling at ambient humidity)
Type: physicochemical
Protocol: Solids deliquesced within approx. 1 hour of exposure to elevated relative humidity. The sample was capped and placed in a freezer for storage.

## CC(=O)Oc1cccc2[nH]cc(CCN(C)C)c12.Cl [O-acetyl psilocin hydrochloride]
Open vial inside a 75% RH jar (hygroscopicity test)
  time to deliquescence: ≤ 1 h

## CC(=O)Oc1cccc2[nH]cc(CCN(C)C)c12.O=C(O)/C=C\C(=O)O [non-crystalline maleate salt, O-acetyl psilocin maleate]
Ambient relative humidity (50% RH in summertime)
  physical stability of the non-crystalline material: unstable

## CC(=O)Oc1cccc2[nH]cc(CCN(C)C)c12.O=P(O)(O)O [phosphate salt (Forms A+B), O-acetyl psilocin phosphate]
65% RH
  deliquescence: deliquesce
Evaluation using RH jars
  hygroscopicity: low

## Psilocybin Mesylate
Ambient humidity (~50-60%)
  behaviour when handled at ambient humidity: became tacky and deliquesced
